Calls of active or inactive are those of the source. The calls are words filed in the database; no cut-off is given here.
Columns and labels:
A549 = assay: Cytotoxicity against human A549 cells assessed as inhibition of cell growth incubated for 72 hrs by CCK-8 assay; assay type: functional, cell-based; details: A549, 72 h
Caco-2 = assay: Cytotoxicity against human Caco-2 cells assessed as inhibition of cell growth incubated for 72 hrs by CCK-8 assay; assay type: functional, cell-based; details: Caco-2, 72 h
MDA-MB-231 = assay: Cytotoxicity against human MDA-MB-231 cells assessed as inhibition of cell growth incubated for 72 hrs by CCK-8 assay; assay type: functional, cell-based; details: MDA-MB-231, 72 h
Staphylococcus aureus = assay: Antimicrobial activity against Staphylococcus aureus ATCC 29213 incubated for 24 hrs by absorbance based analysis; assay type: functional, organism-based
Aspergillus flavus = assay: Antimicrobial activity against Aspergillus flavus AS3.3950 incubated for 24 hrs by absorbance based analysis; assay type: functional, organism-based
Aspergillus ochraceus = assay: Antimicrobial activity against Aspergillus ochraceus AS3.3876 incubated for 24 hrs by absorbance based analysis; assay type: functional, organism-based
Saccharomyces cerevisiae = assay: Antimicrobial activity against Saccharomyces cerevisiae AS2.399 incubated for 24 hrs by absorbance based analysis; assay type: functional, organism-based
Escherichia coli = assay: Antimicrobial activity against Escherichia coli DH5alpha incubated for 24 hrs by absorbance based analysis; assay type: functional, organism-based
Aspergillus cristatus = assay: Antimicrobial activity against Aspergillus cristatus CB10002 incubated for 24 hrs by absorbance based analysis; assay type: functional, organism-based
HepG2 = assay: Cytotoxicity against human HepG2 cells assessed as inhibition of cell growth incubated for 72 hrs by CCK-8 assay; assay type: functional, cell-based; details: HepG2, 72 h

SMILES | IC50 (A549) [µM] | IC50 (Caco-2) [µM] | IC50 (MDA-MB-231) [µM] | Activity (Staphylococcus aureus) | Activity (Aspergillus flavus) | Activity (Aspergillus ochraceus) | Activity (Saccharomyces cerevisiae) | Activity (Escherichia coli) | Activity (Aspergillus cristatus) | IC50 (HepG2) [µM]
C=CCCCCCCCCCCC(=O)O | 120 | 140 | – | – | – | – | – | – | – | –
CCCC/C=C\CCCCCCCC(=O)O [MYRISTOLEIC ACID] | 270 | 270 | – | – | – | – | – | – | – | –
Cc1ccccc1/C=C/CCC(=O)O | 64 | > 1000 | 190 | inactive | inactive | inactive | inactive | inactive | inactive | 740
CCCCCCCCCCCCCC(=O)O [MYRISTIC ACID] | 200 | > 1000 | – | – | – | – | – | – | – | –
CCCCCCCCCCCCC(=O)O [TRIDECANOATE] | 250 | 280 | – | – | – | – | – | – | – | –
Cc1ccccc1/C=C/CCCCCCCCCCC(=O)O | 0.35 | 4.6 | 0.45 | inactive | inactive | inactive | inactive | inactive | inactive | 2.2
